Data: publication PMC9816194, “Use of the head-twitch response to investigate the structure–activity relationships of 4-thio-substituted 2,5-dimethoxyphenylalkylamines” (Psychopharmacology, 2022)
Like-named read-outs stand apart in the source and are kept apart here.

Legend:
[1] = system: male C57BL/6 J mice; design: method as in Halberstadt et al. (2019a); conditions: HTR, previous experiment using similar methods; ref Halberstadt et al. (2019a); cited from earlier work
[2] = system: male C57BL/6 J mice; assay: Head-twitch response (HTR), magnetometer coil recording; type: in vivo; conditions: for HTR Counts (Mean ± SEM): 30 min; for ED50: Mus musculus, 0.5 h, HTR, 30 min recording, male C57BL/6 J mice; for ED50 / effect on HTR counts (in words): IP; for maximum number of head twitches (mean ± SEM): during the 30-min assessment period; for effect on HTR counts (in words): versus vehicle/baseline
Method: Male C57BL/6 J mice (Jackson Laboratory, Bar Harbor, ME) were housed in a vivarium at the University of California San Diego (UCSD), which is an AAALAC-approved animal facility that complies with Federal and State requirements for care and treatment of laboratory animals. The mice (6–8 weeks old) were housed in a climate-controlled room with a reversed light-cycle (lights on at 19:00 h, off at 07:00 h) up to 4 animals per cage. Food and water were provided ad libitum, except during behavioral testing which occurred between 10:00 and 18:00 h. All experiments were conducted according to NIH guidelines and were approved by the UCSD animal care committee.
Head movement was recorded using a head-mounted magnet and a magnetometer coil (Halberstadt and Geyer [2013]). Briefly, mice were anesthetized, a small incision was made in the scalp, and a neodymium magnet was attached to the dorsal surface of the cranium using dental cement. Following a 1–2-week recovery period, behavioral experiments were conducted in a well-lit room with at least 7 days between sessions to avoid any carryover effects. Mice were treated with vehicle or test compound and then placed in a glass cylinder surrounded by a magnetometer coil and activity was recorded for 30 min. All test substances were administered IP dissolved in saline using an injection volume of 5 mL/kg. Coil voltage was filtered (5–10 kHz lowpass), digitized (20 kHz sampling rate), and saved to disk using a Powerlab/8SP with LabChart v 7.3.2 (ADInstruments, Colorado Springs, CO). To detect head twitches, events in the recordings were converted into scalograms using a wavelet transform and then the images were classified using a multistage approach combining the deep convolutional neural network (CNN) ResNet-50 with a support vector machine (SVM) algorithm (Halberstadt [2020]). HTR counts were analyzed using a one-way Welch analysis of variance (ANOVA). Post hoc pairwise comparisons were performed using Dunnett’s test. […] Median effective doses (ED50 values) and 95% confidence intervals were calculated using nonlinear regression (Prism ver. 9.0.2, GraphPad Software Inc, San Diego, CA, USA).

[3] = system: humans; conditions: p.o.; ref Shulgin and Shulgin 1991; Trachsel et al. 2013; cited from earlier work
[4] = system: rats; design: method as in Eshleman et al. 2014; Fantegrossi et al. 2005; conditions: rats trained to discriminate LSD or DMT; ref Eshleman et al. 2014; Fantegrossi et al. 2005; cited from earlier work
[5] = system: rats; design: method as in Khorana et al. 2004; Li et al. 2010, 2008; conditions: ref Khorana et al. 2004, Li et al. 2010, 2008; cited from earlier work
[6] = system: monkeys; design: method as in Khorana et al. 2004; Li et al. 2010, 2008; conditions: ref Khorana et al. 2004, Li et al. 2010, 2008; cited from earlier work
[7] = system: mice; conditions: ref Fantegrossi et al. 2005, cited from earlier work
[8] = molecular target: T1, human 5-HT2A receptor (Homo sapiens, UniProt P28223); design: expressed in transfected cells; host or cells: HEK 293 (transient), membrane preparations; conditions: read-out: 5-HT2A Ki, [3H]ketanserin, cited from earlier work
[9] = molecular target: T1, human 5-HT2A receptor; design: expressed in transfected cells; host or cells: HEK 293 (transient); method as in Luethi et al. 2018; conditions: 5-HT2A calcium flux assays; ref Luethi et al. 2018; cited from earlier work
[10] = read-out: ED50 µmol/kg (95% CI)

T1 sequence (P28223 whole entry): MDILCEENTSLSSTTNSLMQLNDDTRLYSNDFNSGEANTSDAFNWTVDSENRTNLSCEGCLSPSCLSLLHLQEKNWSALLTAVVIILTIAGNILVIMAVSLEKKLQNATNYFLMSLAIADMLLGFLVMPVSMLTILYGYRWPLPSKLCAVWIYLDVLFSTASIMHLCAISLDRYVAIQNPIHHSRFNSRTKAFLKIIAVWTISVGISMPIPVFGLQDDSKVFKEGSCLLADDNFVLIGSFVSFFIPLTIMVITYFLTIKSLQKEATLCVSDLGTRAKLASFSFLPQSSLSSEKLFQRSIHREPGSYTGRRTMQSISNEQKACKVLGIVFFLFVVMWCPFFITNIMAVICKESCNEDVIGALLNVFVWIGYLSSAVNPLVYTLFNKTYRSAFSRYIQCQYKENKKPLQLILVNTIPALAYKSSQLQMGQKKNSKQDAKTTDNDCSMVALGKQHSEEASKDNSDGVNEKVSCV

Row | Compound | HTR Counts (Mean ± SEM) ([2]; 0.1 mg/kg IP) | HTR Counts (Mean ± SEM) ([2]; 0.3 mg/kg IP) | HTR Counts (Mean ± SEM) ([2]; 1 mg/kg IP) | HTR Counts (Mean ± SEM) ([2]; 3 mg/kg IP) | ED50 [2, 10] | ED50 ([2]; read-out: ED50 mg/kg (95% CI)) | maximum number of head twitches (mean ± SEM) [2] | substitution for training drug (in words) [4] | Ki ([8]; ref Luethi et al. (2018)) | effect on HTR counts (in words) [2] | 5-HT2A agonist efficacy (in words) [9] | other results
1 | COc1cc(OC)c(OC)cc1CC(C)N (stereo not drawn) [TMA-2, 2,4,5-trimethoxyamphetamine] |  |  |  |  |  |  |  |  |  |  |  | ED50 µmol/kg (95% CI) [1]: 12.4 (8.6–17.8) ^[1] µmol/kg; ED50 mg/kg (95% CI) [1]: 2.79 (1.94–4.01) ^[1] mg/kg
2 | CCCSc1cc(OC)c(CCN)cc1OC.Cl [Compound 2C-T-7, 2,5-dimethoxy-4-n-propylthiophenethylamine hydrochloride] | 11.8 ± 1.3 | 18.4 ± 3.5 | 70.2 ± 10.6 | 58.6 ± 9.7 | 2.12 µmol/kg | 0.62 mg/kg | 70.2 ± 10.6 | partial generalization | 5.3 nM |  |  | Human active dose range [3]: 10 to 30 mg; effects in DOM-trained animals (in words) [5]: hallucinogen-like effects; effects in DOM-trained animals (in words) [6]: hallucinogen-like effects; HTR after pretreatment with 5-HT2A antagonist M100907 (in words) ([7]; mice pretreated with M100907): blocked; induction of HTR (in words) ([7]; mice): induce the head-twitch response
3 | COc1cccc(CSc2cc(OC)c(CCN)cc2OC)c1.Cl [Compound 2C-T-33, 2,5-dimethoxy-4-(3-methoxybenzylthio)phenethylamine hydrochloride] |  | 8.6 ± 2.2 | 5.0 ± 2.8 | 9.6 ± 1.7 |  |  |  |  | 1.7 nM | did not produce a significant increase in HTR counts | low efficacy partial agonists | HTR Counts (Mean ± SEM) ([2]; 10 mg/kg IP): 7.8 ± 0.8
4 | CCSc1cc(OC)c(CCN)cc1OC.Cl [Compound 2C-T-2, 2,5-dimethoxy-4-ethylthiophenethylamine hydrochloride] | 12.2 ± 1.9 | 28.4 ± 4.7 | 65.2 ± 5.9 | 36.8 ± 11.5 | 1.44 µmol/kg | 0.4 mg/kg | 65.2 ± 5.9 | partial generalization |  |  |  | Ki ([8]; ref Rickli et al. (2015)): 9 nM
5 | COc1cc(SCc2ccccc2)c(OC)cc1CCN.Cl [Compound 2C-T-27, 4-benzylthio-2,5-dimethoxyphenethylamine hydrochloride] |  |  |  | 9.0 ± 0.8 | 7.3 µmol/kg | 2.48 mg/kg |  |  | 1.6 nM | relatively weak | low efficacy partial agonists | HTR Counts (Mean ± SEM) ([2]; 1.5 mg/kg IP): 6.0 ± 1.6; HTR Counts (Mean ± SEM) ([2]; 6 mg/kg IP): 12.8 ± 2.0; HTR Counts (Mean ± SEM) ([2]; 12 mg/kg IP): 10.8 ± 3.6; HTR Counts (Mean ± SEM) ([2]; 24 mg/kg IP): 5.4 ± 2.0
